Laboratory results from ChEMBL document CHEMBL1136841, “Discovery of 2-(alpha-methylbenzylamino) pyrazines as potent Type II inhibitors of FMS” (Bioorg Med Chem Lett, 2009).

How the values were obtained:
[1] = test system: Rattus norvegicus; test: Half life in rat at 5 mg/kg, iv; assay type: ADME, organism-based; set-up: dose 5 mg/kg, route intravenous; conditions: in vivo
[2] = test system: Rattus norvegicus; test: Apparent volume of distribution in rat at 5 mg/kg, iv; assay type: ADME, organism-based; set-up: dose 5 mg/kg, route intravenous; conditions: in vivo

A t1/2 [1] of 5.9 h and a Vz [2] of 30.2 L/kg were found for `Cc1cccc(C(=O)Nc2cccc([C@H](C)Nc3cncc(Cl)n3)c2)c1` in this work.
